Results from patent US8754128B2, “Dioxoanthracene sulphonate derivatives” (Laboratoire Medidom SA, priority 2007, dated 2014).
≈ marks a conversion by molar mass, not a printed value.

What was measured:
colon and kidney cells = details: Comet assay, Müller et al. 1996; cited from earlier work
Solubility in water = assay type: physicochemical; details: for solubility of test solutions for chondrocyte culture: rhein needed five minutes sonication; for solubility in water (in words): water / aqueous solution
[1] = tested on: IL-1 β cytokine production by human normal and osteoarthritic (OA) chondrocytes; experiment: In vitro IL-1β inhibition in LPS-stimulated human chondrocytes (ELISA); assay type: cell-based
Source text: The activity of the compound of example 1, and of rhein in inhibiting the lipopolysaccharide (LPS) stimulated production of IL-1 β cytokine by human normal and osteoarthritic (OA) chondrocytes was studied.
Human cartilage was obtained during orthopaedic surgery for total hip prosthesis due to traumatic fracture in normal subjects or OA patients. Patients with OA were selected on the basis of the following criteria (1) bi-lateral OA, (2) diagnoses of moderate OA (grade I-III, Kellgren-Laurence), supported by radiology and pathology.
A suspension of isolated chondrocytes was prepared from cartilage specimens obtained from four OA patient and nine normal subjects. Specimens were obtained and maintained under aseptic conditions. The cartilage was cut into small fragments and incubated with 1 mg/ml clostridial collagenase in carbonate/bicarbonate buffer for 48 hours at 37° C. Once separated from the cartilage matrix, chondrocytes were centrifuged at 1500 RPM for five minutes. The separated chondrocytes, suspended in culture medium (DMEM supplemented with 10% SCF) were used for the experiment. Cell viability was evaluated by Trypan blue exclusion.
In vitro stimulation of chondrocytes with bacterial endotoxin (LPS) for the production of IL-1 β was carried out as follows: […]

Compound	solubility of test solutions for chondrocyte culture (Solubility in water)	solubility in water (in words) (Solubility in water)	further results
O=C1c2cccc(O)c2C(=O)c2c(O)cc(CO)cc21 [Aloe-emodin]			clastogenic effect (colon and kidney cells): clastogenic effect in colon and kidney cells
O=C(O)c1cc(O)c2c(c1)C(=O)c1ccc(S(=O)(=O)O)c(O)c1C2=O [Example 1, 6-sulfo-4,5-dihydroxy-9,10-dioxo-2-anthracene carboxylic acid]	good solubility		solubility (Solubility in water; water): 1200 µg/mL (≈ 3.29 mM); IL-1β inhibition activity compared with rhein (FIG. 3) ([1]; LPS-stimulated normal and OA chondrocytes, 48 hours, ELISA): significantly increased IL-1β inhibition activity compared with rhein; inhibition of IL-1β production (FIG. 4) ([1]; LPS-stimulated normal chondrocytes, dose-dependent): significant inhibition of IL-1β production
CC(=O)Oc1cccc2c1C(=O)c1c(OC(C)=O)cc(C(=O)O)cc1C2=O [diacerein]		practically insoluble in water	
O=C(O)c1cc(O)c2c(c1)C(=O)c1cccc(O)c1C2=O [rhein, 4,5-dihydroxy-9,10-dioxo-2-anthracene carboxylic acid]	solubility problems	practically insoluble in water	
